Results from PMC9354932, “Heme Interferes With Complement Factor I-Dependent Regulation by Enhancing Alternative Pathway Activation” (Frontiers in Immunology, 2022).

Target: T1, factor I (FI) (Homo sapiens, UniProt P05156)
T1 construct: gene CFI; purified human complement factor I, commercial (CompTech); mature heavy and light chains of one precursor; immobilised on CM5 chip for SPR
T1 sequence (P05156 19-335): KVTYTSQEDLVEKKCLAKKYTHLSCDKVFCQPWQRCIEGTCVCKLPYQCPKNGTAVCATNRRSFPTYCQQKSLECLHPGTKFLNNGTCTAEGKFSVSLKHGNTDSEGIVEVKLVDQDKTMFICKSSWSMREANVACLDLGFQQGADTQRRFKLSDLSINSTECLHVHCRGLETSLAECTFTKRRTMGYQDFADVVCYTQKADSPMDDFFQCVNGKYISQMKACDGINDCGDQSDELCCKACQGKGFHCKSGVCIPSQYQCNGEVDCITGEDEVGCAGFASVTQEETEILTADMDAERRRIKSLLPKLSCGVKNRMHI
T1 sequence (P05156 340-583): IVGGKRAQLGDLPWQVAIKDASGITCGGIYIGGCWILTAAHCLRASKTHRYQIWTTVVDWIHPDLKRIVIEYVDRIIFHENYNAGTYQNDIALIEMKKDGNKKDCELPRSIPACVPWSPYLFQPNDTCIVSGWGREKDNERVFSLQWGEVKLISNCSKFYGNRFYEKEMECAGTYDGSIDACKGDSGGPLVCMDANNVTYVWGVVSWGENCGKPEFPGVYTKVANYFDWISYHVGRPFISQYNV
Assay: SPR (Biacore […]), factor I immobilised on CM5 chip
Type: binding
Conditions: read-out: KD (apparent)

C=CC1=C(C)C2=Cc3c(C=C)c(C)c4[n]3[Fe]([Cl])[n]3c(c(C)c(CCC(=O)O)c3=CC3=NC(=C4)C(C)=C3CCC(=O)O)=CC1=N2 [heme]
Kd: 11.5 µM
